This note sets out measurements from PubChem BioAssay (NCI).

Each structure is given as a SMILES string.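 Interpolation was linear, between the two tested concentrations surrounding the appropriate level; five concentrations were tested over 48 hours in 96-well plates. Here, GI50 denotes the concentration required for 50% inhibition of growth. Definition used: TGI = concentration required for complete inhibition of growth.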

Some test systems named below: LOX IMVI melanoma; TK-10 renal; 786-0 renal; KM12 colon; SK-MEL-5 melanoma; MALME-3M melanoma; SK-OV-3 ovarian; NCI-H460 lung; SF-268 CNS; HT29 colon.
Common to all, as to test: NCI-60 cell line screen, 48 h

Consider `CC/C(=C/c1ccc(OC)cc1)[N+](=O)[O-]`, for which the GI50 is 1.47 µM in the assay on LOX IMVI melanoma; 1.75 µM with TK-10 renal; 1.7 µM with 786-0 renal; 2.24 µM with KM12 colon; 1.87 µM in the assay with SK-MEL-5 melanoma; 1.78 µM with MALME-3M melanoma. Also, the GI50 with SK-OV-3 ovarian was 14.4 µM; with NCI-H460 lung, 2.11 µM; in the assay with SF-268 CNS it was 3.01 µM; in the assay on HT29 colon, 2.71 µM. Moreover, the TGI came out at 2.98 µM in the assay with LOX IMVI melanoma; 3.28 µM in the assay on TK-10 renal; 3.14 µM in the assay on 786-0 renal; 5.47 µM with KM12 colon; 3.56 µM with SK-MEL-5 melanoma; 3.77 µM in the assay on MALME-3M melanoma. The TGI in the assay with SK-OV-3 ovarian was 27.5 µM; with NCI-H460 lung, 4.47 µM; with SF-268 CNS, 10.4 µM; in the assay on HT29 colon, 7.12 µM.
On to `COc1cc(C(=O)/C=C/c2c[nH]c3ccccc23)cc(OC)c1OC`, for which the GI50 was 0.0508 µM in the assay with LOX IMVI melanoma; 0.188 µM in the assay on TK-10 renal; below 0.0223 µM in the assay on 786-0 renal; 0.0217 µM in the assay on KM12 colon; below 0.0173 µM in the assay with SK-MEL-5 melanoma; 0.0381 µM with MALME-3M melanoma. The GI50 with SK-OV-3 ovarian was 0.0438 µM; in the assay on NCI-H460 lung, below 0.0191 µM; with SF-268 CNS it was 0.0735 µM; in the assay with HT29 colon it was below 0.0146 µM. Moreover, the TGI with LOX IMVI melanoma was 16.1 µM; in the assay on TK-10 renal, 9.56 µM; with 786-0 renal it was above 33.9 µM; with KM12 colon it was 11.2 µM; in the assay with SK-MEL-5 melanoma, 0.775 µM; in the assay with MALME-3M melanoma it was 18 µM. For the same compound, the TGI with SK-OV-3 ovarian was 31.1 µM; in the assay with NCI-H460 lung, 2.17 µM; with SF-268 CNS, 26.3 µM; in the assay on HT29 colon it was 0.343 µM.
In the case of `O=C1c2ccccc2C(=O)c2c1ccc1c3ccccc3n(-c3ccccc3)c21`, the TGI in the assay on LOX IMVI melanoma was determined as 30.4 µM; in the assay with TK-10 renal, 60.1 µM; in the assay with 786-0 renal, 52.4 µM; in the assay on KM12 colon, 50.1 µM; with SK-MEL-5 melanoma it was 29.9 µM; in the assay on MALME-3M melanoma, 44.6 µM. Also, the TGI is above 100 µM with SK-OV-3 ovarian, 63.8 µM in the assay with NCI-H460 lung, 54 µM in the assay with SF-268 CNS and 29.2 µM in the assay with HT29 colon.
Turning to `N#Cc1cnn(C(=O)c2nn(-c3ccc(Cl)cc3)cc2O)c1N`, the GI50 is 0.434 µM in the assay with LOX IMVI melanoma; 0.267 µM in the assay on TK-10 renal; 0.658 µM in the assay on 786-0 renal; 0.374 µM in the assay on KM12 colon; 0.464 µM in the assay on SK-MEL-5 melanoma; 0.926 µM with MALME-3M melanoma. In addition, the GI50 was 0.521 µM with SK-OV-3 ovarian, 0.189 µM with NCI-H460 lung, 0.439 µM in the assay on SF-268 CNS and 1 µM in the assay with HT29 colon. Further, the TGI in the assay with LOX IMVI melanoma stood at 12 µM; with TK-10 renal it was 7.34 µM; in the assay with 786-0 renal, 16.3 µM; in the assay with KM12 colon, 22.2 µM; with SK-MEL-5 melanoma, 2.51 µM; in the assay on MALME-3M melanoma it was 13.6 µM. Besides, the TGI with SK-OV-3 ovarian came to 11.3 µM; in the assay on NCI-H460 lung, 0.507 µM; in the assay on SF-268 CNS, 23.8 µM; in the assay with HT29 colon, 14.3 µM.
With `Nc1ncc(CN2CCCC2)c(-c2ccccc2O)n1`, the TGI in the assay with LOX IMVI melanoma, with TK-10 renal, in the assay on 786-0 renal, in the assay with KM12 colon, in the assay on SK-MEL-5 melanoma and with MALME-3M melanoma was above 750 µM in each case. For the same compound, the TGI in the assay on SK-OV-3 ovarian, with NCI-H460 lung, in the assay on SF-268 CNS and in the assay with HT29 colon was above 750 µM each time.
For `CCCCCn1sc(=O)n(Cc2ccc(CNC(=O)C(C)c3ccc(CC(C)C)cc3)cc2)c1=O` (stereo not given), the GI50 in the assay with LOX IMVI melanoma was 0.474 µM; in the assay with TK-10 renal, 0.736 µM; in the assay with 786-0 renal, 0.747 µM; in the assay with KM12 colon it was 1.59 µM; in the assay with SK-MEL-5 melanoma it was 1.61 µM; with MALME-3M melanoma, 1.43 µM. In addition, the GI50 was 3.5 µM in the assay on SK-OV-3 ovarian, 1.46 µM in the assay on NCI-H460 lung, 1.52 µM in the assay on SF-268 CNS and 0.949 µM with HT29 colon. Moreover, the TGI is 1.52 µM with LOX IMVI melanoma; 2.05 µM in the assay on TK-10 renal; 2.06 µM with 786-0 renal; 3.3 µM with KM12 colon; 2.96 µM in the assay on SK-MEL-5 melanoma; 2.8 µM in the assay on MALME-3M melanoma. Besides, the TGI in the assay with SK-OV-3 ovarian was 14.7 µM; with NCI-H460 lung, 3.07 µM; with SF-268 CNS it was 2.96 µM; in the assay with HT29 colon it was 2.55 µM.
Consider `Cc1cnc(C(=O)Nc2nc3ccc(S(=O)(=O)Nc4ccc(C(C)(C)C)cc4)cc3[nH]2)cn1`, for which the GI50 in the assay on LOX IMVI melanoma was 0.79 µM; with TK-10 renal, 2.53 µM; with 786-0 renal, 0.552 µM; in the assay with KM12 colon, 0.349 µM; in the assay on SK-MEL-5 melanoma it was 0.33 µM; in the assay with MALME-3M melanoma it was 0.59 µM. Moreover, the GI50 is 1.09 µM with SK-OV-3 ovarian, 0.37 µM in the assay with NCI-H460 lung, 0.759 µM in the assay on SF-268 CNS and 0.388 µM with HT29 colon. For the same compound, the TGI in the assay with LOX IMVI melanoma worked out at 13.1 µM; in the assay with TK-10 renal, 15.2 µM; in the assay with 786-0 renal, 13.7 µM; in the assay on KM12 colon, 11 µM; in the assay on SK-MEL-5 melanoma, 7.09 µM; with MALME-3M melanoma, 14.5 µM. Also, the TGI in the assay with SK-OV-3 ovarian worked out at 17.1 µM; in the assay with NCI-H460 lung, 2.02 µM; in the assay on SF-268 CNS, 13.6 µM; with HT29 colon it was 4.23 µM.
As for `CNC(=O)c1sc(-n2cnc3cc(OC)c(OC)cc32)cc1OCc1ccccc1C(F)(F)F`, the GI50 in the assay with LOX IMVI melanoma, with TK-10 renal, in the assay on 786-0 renal, in the assay on KM12 colon, in the assay with SK-MEL-5 melanoma and in the assay on MALME-3M melanoma was above 25 µM in each case. Also, the GI50 with SK-OV-3 ovarian, in the assay with NCI-H460 lung, in the assay with SF-268 CNS and in the assay with HT29 colon was above 25 µM in each case. In addition, the TGI in the assay with LOX IMVI melanoma, with TK-10 renal, in the assay on 786-0 renal, in the assay on KM12 colon, in the assay on SK-MEL-5 melanoma and with MALME-3M melanoma was above 25 µM throughout. For the same compound, the TGI in the assay on SK-OV-3 ovarian, in the assay on NCI-H460 lung, in the assay on SF-268 CNS and in the assay with HT29 colon was above 25 µM throughout.
As for `COc1ccc2c(c1O)[C@@]13CCCC=C1[C@@H](C2)N(C)CC3`, the TGI in the assay with LOX IMVI melanoma is above 100 µM; in the assay on TK-10 renal, above 100 µM; in the assay on 786-0 renal it was above 100 µM; in the assay with KM12 colon it was above 100 µM; in the assay on SK-MEL-5 melanoma, above 100 µM; with MALME-3M melanoma it was 3.35 µM. Also, the TGI in the assay on SK-OV-3 ovarian, in the assay on NCI-H460 lung, in the assay on SF-268 CNS and with HT29 colon was above 100 µM each time.
For `O=C1c2ccc3c4c(ccc(c24)C(=O)N1CCCCO)C(=O)N(CCCCO)C3=O`, the GI50 in the assay with LOX IMVI melanoma was 1.35 µM; in the assay on TK-10 renal, 5.29 µM; in the assay on 786-0 renal, 2.91 µM; with KM12 colon it was 2.27 µM; with SK-MEL-5 melanoma it was 0.388 µM; in the assay with MALME-3M melanoma it was 0.254 µM. The GI50 in the assay with SK-OV-3 ovarian was 4.14 µM; in the assay with NCI-H460 lung it was 1.12 µM; in the assay on SF-268 CNS, 2.09 µM; with HT29 colon, 0.824 µM. Also, the TGI was found to be 3.58 µM with LOX IMVI melanoma; 32.5 µM in the assay with TK-10 renal; 20.5 µM in the assay with 786-0 renal; 10.7 µM in the assay on KM12 colon; 1.48 µM in the assay on SK-MEL-5 melanoma; 1.02 µM in the assay on MALME-3M melanoma. In addition, the TGI worked out at 17.8 µM with SK-OV-3 ovarian, 4.75 µM with NCI-H460 lung, 11.5 µM with SF-268 CNS and 14.3 µM in the assay on HT29 colon.
Take `CC1=C(C(=S)Nc2ccc(Cl)c(C(=O)OC(C)C)c2)SCCO1`: the TGI with LOX IMVI melanoma was 28.8 µM; in the assay with TK-10 renal, 54.3 µM; with 786-0 renal, 30.2 µM; in the assay with KM12 colon, 33.5 µM; in the assay with SK-MEL-5 melanoma, 30.8 µM; in the assay on MALME-3M melanoma it was 36.9 µM. In addition, the TGI in the assay on SK-OV-3 ovarian worked out at 54.8 µM; with NCI-H460 lung, 44.6 µM; in the assay with SF-268 CNS, 60.8 µM; in the assay on HT29 colon it was 32.6 µM.
